Measurements published in the kinase profiling compilation of Christmann-Franck et al. (2016).

Legend:
Test in all cases: radiometric filter-binding kinase assay, Kinase HotSpot
Settings in all cases: compound 0.5 µM; ATP 10 µM
PRKCH (human) = PRKCH (human) (UniProt P24723)
CDK3 CCNE1 (human) = CDK3 CCNE1 (human) (UniProt Q00526+P24864)
MAPKAPK5 (human) = MAPKAPK5 (human) (UniProt Q8IW41)
WEE1 (human) = WEE1 (human) (UniProt P30291)
STK24 (human) = STK24 (human) (UniProt Q9Y6E0)
CAMK2B (human) = CAMK2B (human) (UniProt Q13554)
CSNK2A1 (human) = CSNK2A1 (human) (UniProt P68400)
Chain of CSNK2A1 (human) (P68400 whole entry, looked up): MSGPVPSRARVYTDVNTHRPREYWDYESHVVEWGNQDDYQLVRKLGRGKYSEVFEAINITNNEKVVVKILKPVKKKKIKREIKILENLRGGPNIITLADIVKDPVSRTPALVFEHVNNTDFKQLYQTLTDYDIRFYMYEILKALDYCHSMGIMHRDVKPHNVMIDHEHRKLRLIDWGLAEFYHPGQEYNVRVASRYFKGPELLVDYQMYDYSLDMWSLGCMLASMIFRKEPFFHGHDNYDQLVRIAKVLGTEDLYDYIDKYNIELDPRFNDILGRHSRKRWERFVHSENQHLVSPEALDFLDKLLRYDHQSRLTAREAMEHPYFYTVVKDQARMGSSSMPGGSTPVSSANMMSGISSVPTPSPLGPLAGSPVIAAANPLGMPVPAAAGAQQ

LTK (human) = LTK (human) (UniProt P29376)
Chain of LTK (human) (P29376 whole entry, looked up): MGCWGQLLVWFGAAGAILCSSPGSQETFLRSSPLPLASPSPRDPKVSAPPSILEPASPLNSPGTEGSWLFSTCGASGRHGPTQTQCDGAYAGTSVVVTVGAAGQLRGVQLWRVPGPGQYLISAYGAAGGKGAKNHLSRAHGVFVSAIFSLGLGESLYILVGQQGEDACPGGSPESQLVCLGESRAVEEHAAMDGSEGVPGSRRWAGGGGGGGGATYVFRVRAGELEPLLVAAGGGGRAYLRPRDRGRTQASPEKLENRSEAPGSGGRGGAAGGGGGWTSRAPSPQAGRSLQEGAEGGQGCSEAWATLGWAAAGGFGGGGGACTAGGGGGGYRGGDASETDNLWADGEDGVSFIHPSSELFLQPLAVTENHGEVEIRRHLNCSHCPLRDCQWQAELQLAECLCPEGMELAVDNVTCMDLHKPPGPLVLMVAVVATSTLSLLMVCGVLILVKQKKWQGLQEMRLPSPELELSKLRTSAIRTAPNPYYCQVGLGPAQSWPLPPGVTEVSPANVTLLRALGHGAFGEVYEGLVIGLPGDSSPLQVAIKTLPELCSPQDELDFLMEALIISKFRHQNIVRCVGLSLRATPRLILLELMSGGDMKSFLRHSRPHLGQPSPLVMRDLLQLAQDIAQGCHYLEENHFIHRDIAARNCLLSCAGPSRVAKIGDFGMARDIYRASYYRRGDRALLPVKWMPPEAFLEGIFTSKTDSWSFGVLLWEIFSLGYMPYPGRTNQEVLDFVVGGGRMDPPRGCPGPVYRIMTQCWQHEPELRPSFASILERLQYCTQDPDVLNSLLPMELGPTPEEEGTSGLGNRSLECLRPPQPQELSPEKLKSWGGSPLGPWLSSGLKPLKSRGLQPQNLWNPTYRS

AURKA (human) = AURKA (human) (UniProt O14965)
IKBKB (human) = IKBKB (human) (UniProt O14920)
TAOK1 (human) = TAOK1 (human) (UniProt Q7L7X3)
YES1 (human) = YES1 (human) (UniProt P07947)
ULK2 (human) = ULK2 (human) (UniProt Q8IYT8)
Chain of ULK2 (human) (Q8IYT8 whole entry, looked up): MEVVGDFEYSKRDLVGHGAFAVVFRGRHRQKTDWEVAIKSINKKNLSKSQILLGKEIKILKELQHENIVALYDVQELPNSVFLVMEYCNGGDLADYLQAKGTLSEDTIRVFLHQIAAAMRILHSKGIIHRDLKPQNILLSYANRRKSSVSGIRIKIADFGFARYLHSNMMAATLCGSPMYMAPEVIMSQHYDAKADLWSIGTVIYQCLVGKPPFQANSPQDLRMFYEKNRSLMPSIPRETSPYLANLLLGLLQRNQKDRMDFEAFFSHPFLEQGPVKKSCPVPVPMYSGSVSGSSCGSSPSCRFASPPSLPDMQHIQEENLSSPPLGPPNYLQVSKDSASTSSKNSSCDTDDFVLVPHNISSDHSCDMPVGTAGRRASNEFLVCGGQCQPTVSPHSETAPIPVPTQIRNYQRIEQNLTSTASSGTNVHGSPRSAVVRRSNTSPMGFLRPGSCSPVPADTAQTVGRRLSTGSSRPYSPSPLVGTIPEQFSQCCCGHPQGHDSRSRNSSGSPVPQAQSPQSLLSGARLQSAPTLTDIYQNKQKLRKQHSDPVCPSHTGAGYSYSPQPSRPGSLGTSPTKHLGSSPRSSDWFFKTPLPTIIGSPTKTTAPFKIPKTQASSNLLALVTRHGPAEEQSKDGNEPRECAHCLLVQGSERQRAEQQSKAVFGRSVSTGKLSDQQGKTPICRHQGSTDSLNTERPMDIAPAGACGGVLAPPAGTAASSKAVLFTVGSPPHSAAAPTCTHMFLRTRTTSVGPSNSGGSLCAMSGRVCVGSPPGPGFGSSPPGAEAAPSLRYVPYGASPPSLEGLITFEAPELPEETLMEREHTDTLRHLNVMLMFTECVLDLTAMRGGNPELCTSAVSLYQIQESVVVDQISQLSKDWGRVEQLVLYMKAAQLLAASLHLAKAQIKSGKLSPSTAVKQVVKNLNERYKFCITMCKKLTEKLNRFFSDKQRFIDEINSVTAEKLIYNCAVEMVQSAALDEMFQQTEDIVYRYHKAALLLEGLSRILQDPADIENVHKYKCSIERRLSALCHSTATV

MKNK2 (human) = MKNK2 (human) (UniProt Q9HBH9)
CDK4 CCND1 (human) = CDK4 CCND1 (human) (UniProt P24385+P11802)
FGFR1 (human) = FGFR1 (human) (UniProt P11362)
TXK (human) = TXK (human) (UniProt P42681)
RPS6KA4 KD2 (human) = RPS6KA4 KD2 (human) (UniProt O75676)
RPS6KA2 KD1 KD2 (human) = RPS6KA2 KD1 KD2 (human) (UniProt Q15349)
RPS6KA6 KD1 KD2 (human) = RPS6KA6 KD1 KD2 (human) (UniProt Q9UK32)
RET (human) = RET (human) (UniProt P07949)
PRKCD (human) = PRKCD (human) (UniProt Q05655)
PHKG1 (human) = PHKG1 (human) (UniProt Q16816)
BRSK2 (human) = BRSK2 (human) (UniProt Q8IWQ3)
TAOK2 (human) = TAOK2 (human) (UniProt Q9UL54)
CLK3 (human) = CLK3 (human) (UniProt P49761)
MLTK (human) = MLTK (human) (UniProt Q9NYL2)
Chain of MLTK (human) (Q9NYL2 whole entry, looked up): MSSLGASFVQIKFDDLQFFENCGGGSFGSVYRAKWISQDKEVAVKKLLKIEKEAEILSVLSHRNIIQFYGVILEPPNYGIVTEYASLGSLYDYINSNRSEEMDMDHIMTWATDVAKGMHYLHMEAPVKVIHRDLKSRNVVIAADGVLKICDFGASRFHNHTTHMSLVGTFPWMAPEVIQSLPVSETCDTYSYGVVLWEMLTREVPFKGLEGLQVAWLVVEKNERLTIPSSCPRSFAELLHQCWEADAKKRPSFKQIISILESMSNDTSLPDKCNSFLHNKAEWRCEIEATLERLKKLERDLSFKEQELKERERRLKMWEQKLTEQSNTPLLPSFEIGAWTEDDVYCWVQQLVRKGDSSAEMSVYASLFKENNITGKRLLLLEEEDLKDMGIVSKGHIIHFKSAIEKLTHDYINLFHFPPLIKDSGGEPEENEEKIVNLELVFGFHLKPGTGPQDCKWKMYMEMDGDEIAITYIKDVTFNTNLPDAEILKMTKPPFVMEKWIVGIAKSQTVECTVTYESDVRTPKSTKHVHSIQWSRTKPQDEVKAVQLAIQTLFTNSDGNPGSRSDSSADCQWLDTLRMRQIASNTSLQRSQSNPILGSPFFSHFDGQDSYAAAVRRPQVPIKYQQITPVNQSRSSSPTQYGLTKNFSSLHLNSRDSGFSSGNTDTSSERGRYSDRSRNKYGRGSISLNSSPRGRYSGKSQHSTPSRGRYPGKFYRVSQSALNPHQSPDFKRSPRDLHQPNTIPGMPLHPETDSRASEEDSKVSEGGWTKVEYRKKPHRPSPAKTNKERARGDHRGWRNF

DCLK2 (human) = DCLK2 (human) (UniProt Q8N568)
RPS6KB2 (human) = RPS6KB2 (human) (UniProt Q9UBS0)
Chain of RPS6KB2 (human) (Q9UBS0 whole entry, looked up): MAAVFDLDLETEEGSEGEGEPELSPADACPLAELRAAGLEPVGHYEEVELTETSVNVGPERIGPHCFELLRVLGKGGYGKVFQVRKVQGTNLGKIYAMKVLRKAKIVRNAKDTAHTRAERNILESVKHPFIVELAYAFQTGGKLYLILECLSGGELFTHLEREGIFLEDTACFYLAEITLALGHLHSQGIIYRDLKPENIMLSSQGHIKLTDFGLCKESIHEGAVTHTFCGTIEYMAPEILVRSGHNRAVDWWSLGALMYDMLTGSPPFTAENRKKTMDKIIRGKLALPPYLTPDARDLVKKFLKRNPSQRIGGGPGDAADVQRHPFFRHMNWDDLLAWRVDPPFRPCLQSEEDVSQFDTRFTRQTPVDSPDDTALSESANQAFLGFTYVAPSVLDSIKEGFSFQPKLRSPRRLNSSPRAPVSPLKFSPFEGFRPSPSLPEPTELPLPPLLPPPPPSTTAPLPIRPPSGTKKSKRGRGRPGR

MAPKAPK2 (human) = MAPKAPK2 (human) (UniProt P49137)
Chain of MAPKAPK2 (human) (P49137 whole entry, looked up): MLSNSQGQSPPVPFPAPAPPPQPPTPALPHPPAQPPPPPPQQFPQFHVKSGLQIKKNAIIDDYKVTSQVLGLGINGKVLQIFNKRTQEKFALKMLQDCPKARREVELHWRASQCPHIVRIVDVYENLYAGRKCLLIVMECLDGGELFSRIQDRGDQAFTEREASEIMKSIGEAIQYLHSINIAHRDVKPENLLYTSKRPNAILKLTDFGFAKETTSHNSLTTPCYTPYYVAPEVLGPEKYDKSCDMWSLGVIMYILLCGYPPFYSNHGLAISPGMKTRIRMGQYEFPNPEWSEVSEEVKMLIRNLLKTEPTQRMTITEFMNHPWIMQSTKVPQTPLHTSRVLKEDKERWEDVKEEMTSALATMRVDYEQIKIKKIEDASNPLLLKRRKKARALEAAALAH

MAPK14 (human) = MAPK14 (human) (UniProt Q16539)
RPS6KA1 KD1 KD2 (human) = RPS6KA1 KD1 KD2 (human) (UniProt Q15418)
EPHB3 (human) = EPHB3 (human) (UniProt P54753)
STK17A (human) = STK17A (human) (UniProt Q9UEE5)
Chain of STK17A (human) (Q9UEE5 whole entry, looked up): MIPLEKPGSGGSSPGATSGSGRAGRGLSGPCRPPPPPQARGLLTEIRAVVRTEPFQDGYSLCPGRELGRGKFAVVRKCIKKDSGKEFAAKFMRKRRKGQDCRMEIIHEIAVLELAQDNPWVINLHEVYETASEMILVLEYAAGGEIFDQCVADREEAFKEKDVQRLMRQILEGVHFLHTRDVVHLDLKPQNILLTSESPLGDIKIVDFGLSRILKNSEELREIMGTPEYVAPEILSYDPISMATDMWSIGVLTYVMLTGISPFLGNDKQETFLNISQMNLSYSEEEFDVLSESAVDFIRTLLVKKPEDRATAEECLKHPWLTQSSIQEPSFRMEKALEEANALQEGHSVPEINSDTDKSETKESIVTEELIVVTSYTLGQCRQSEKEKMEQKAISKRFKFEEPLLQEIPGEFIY

GRK4 (human) = GRK4 (human) (UniProt P32298)
ABL1 (human) = ABL1 (human) (UniProt P00519)
NEK4 (human) = NEK4 (human) (UniProt P51957)
DDR2 (human) = DDR2 (human) (UniProt Q16832)
TYRO3 (human) = TYRO3 (human) (UniProt Q06418)
NTRK3 (human) = NTRK3 (human) (UniProt Q16288)
MAPK1 (human) = MAPK1 (human) (UniProt P28482)
BLK (human) = BLK (human) (UniProt P51451)

Chain of WEE1 (human) (P30291 whole entry, looked up): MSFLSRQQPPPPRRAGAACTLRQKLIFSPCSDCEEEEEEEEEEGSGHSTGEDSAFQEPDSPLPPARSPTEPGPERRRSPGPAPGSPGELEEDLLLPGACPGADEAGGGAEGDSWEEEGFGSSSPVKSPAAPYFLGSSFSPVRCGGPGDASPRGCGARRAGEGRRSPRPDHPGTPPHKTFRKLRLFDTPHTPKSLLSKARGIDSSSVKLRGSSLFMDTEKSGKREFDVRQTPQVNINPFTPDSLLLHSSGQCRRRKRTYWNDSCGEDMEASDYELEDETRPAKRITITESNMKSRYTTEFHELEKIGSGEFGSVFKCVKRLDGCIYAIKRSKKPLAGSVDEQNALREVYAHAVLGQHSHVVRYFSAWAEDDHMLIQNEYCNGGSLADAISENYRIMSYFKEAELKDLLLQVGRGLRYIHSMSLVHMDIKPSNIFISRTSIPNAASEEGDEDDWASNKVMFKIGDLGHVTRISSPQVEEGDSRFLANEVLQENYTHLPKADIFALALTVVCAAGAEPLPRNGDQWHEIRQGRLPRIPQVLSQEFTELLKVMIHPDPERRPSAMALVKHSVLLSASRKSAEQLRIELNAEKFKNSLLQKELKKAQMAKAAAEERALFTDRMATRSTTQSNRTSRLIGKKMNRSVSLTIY

## O=C1Cc2c([nH]c3ccc(Br)cc23)-c2ccccc2N1
PRKCH (human)
  residual activity: 95.3%
CDK3 CCNE1 (human)
  residual activity: 81.7%
MAPKAPK5 (human)
  residual activity: 94.6%
WEE1 (human)
  residual activity: 87.7%
STK24 (human)
  residual activity: 84.8%
CAMK2B (human)
  residual activity: 97.8%
CSNK2A1 (human)
  residual activity: 79.1%
LTK (human)
  residual activity: 91.8%
AURKA (human)
  residual activity: 99.7%
IKBKB (human)
  residual activity: 101%
TAOK1 (human)
  residual activity: 99.4%
YES1 (human)
  residual activity: 59.1%
ULK2 (human)
  residual activity: 90.1%
MKNK2 (human)
  residual activity: 102%
CDK4 CCND1 (human)
  residual activity: 84%
FGFR1 (human)
  residual activity: 99.4%
TXK (human)
  residual activity: 82.6%
RPS6KA4 KD2 (human)
  residual activity: 108%
RPS6KA2 KD1 KD2 (human)
  residual activity: 94.9%
RPS6KA6 KD1 KD2 (human)
  residual activity: 95.9%
RET (human)
  residual activity: 102%
PRKCD (human)
  residual activity: 92.7%
PHKG1 (human)
  residual activity: 49.7%
BRSK2 (human)
  residual activity: 62.7%
TAOK2 (human)
  residual activity: 94%
CLK3 (human)
  residual activity: 99.3%
MLTK (human)
  residual activity: 88.5%
DCLK2 (human)
  residual activity: 94.6%
RPS6KB2 (human)
  residual activity: 99.4%
MAPKAPK2 (human)
  residual activity: 101%
MAPK14 (human)
  residual activity: 93%
RPS6KA1 KD1 KD2 (human)
  residual activity: 90.8%
EPHB3 (human)
  residual activity: 92.3%
STK17A (human)
  residual activity: 102%
GRK4 (human)
  residual activity: 97.9%
ABL1 (human)
  residual activity: 82.6%
NEK4 (human)
  residual activity: 98.9%
DDR2 (human)
  residual activity: 98.4%
TYRO3 (human)
  residual activity: 97.7%
NTRK3 (human)
  residual activity: 70.7%
MAPK1 (human)
  residual activity: 90.5%

## O=C1NC(=O)/C(=C\c2ccc3nccnc3c2)S1
PRKCH (human)
  residual activity: 89.7%
CDK3 CCNE1 (human)
  residual activity: 91.7%
WEE1 (human)
  residual activity: 83.1%
STK24 (human)
  residual activity: 93.2%
CAMK2B (human)
  residual activity: 89.3%
CSNK2A1 (human)
  residual activity: 3.08%
LTK (human)
  residual activity: 94.7%
AURKA (human)
  residual activity: 97.2%
IKBKB (human)
  residual activity: 96.1%
TAOK1 (human)
  residual activity: 82.8%
YES1 (human)
  residual activity: 89.3%
ULK2 (human)
  residual activity: 104%
MKNK2 (human)
  residual activity: 98.2%
CDK4 CCND1 (human)
  residual activity: 94.4%
FGFR1 (human)
  residual activity: 88.5%
TXK (human)
  residual activity: 96.8%
RPS6KA4 KD2 (human)
  residual activity: 115%
RPS6KA2 KD1 KD2 (human)
  residual activity: 85.4%
RPS6KA6 KD1 KD2 (human)
  residual activity: 87.6%
RET (human)
  residual activity: 97.7%
PRKCD (human)
  residual activity: 94.4%
PHKG1 (human)
  residual activity: 91.3%
BRSK2 (human)
  residual activity: 90.9%
TAOK2 (human)
  residual activity: 89.9%
CLK3 (human)
  residual activity: 80.8%
MLTK (human)
  residual activity: 93.6%
DCLK2 (human)
  residual activity: 94.3%
RPS6KB2 (human)
  residual activity: 94.7%
MAPKAPK2 (human)
  residual activity: 97.7%
MAPK14 (human)
  residual activity: 92.9%
RPS6KA1 KD1 KD2 (human)
  residual activity: 80.7%
EPHB3 (human)
  residual activity: 94.5%
STK17A (human)
  residual activity: 94.6%
BLK (human)
  residual activity: 99.4%
GRK4 (human)
  residual activity: 106%
ABL1 (human)
  residual activity: 95.7%
NEK4 (human)
  residual activity: 93.1%
DDR2 (human)
  residual activity: 93.4%
TYRO3 (human)
  residual activity: 99.1%
NTRK3 (human)
  residual activity: 95.3%
MAPK1 (human)
  residual activity: 85.2%

## CC(C)c1nn(-c2c(Cl)cccc2Cl)c2nc(Cc3ccc(OCCO)cc3)nc(O)c12
PRKCH (human)
  residual activity: 87.4%
CDK3 CCNE1 (human)
  residual activity: 6.14%
WEE1 (human)
  residual activity: 109%
STK24 (human)
  residual activity: 47.9%
CAMK2B (human)
  residual activity: 104%
CSNK2A1 (human)
  residual activity: 88.8%
LTK (human)
  residual activity: 87.4%
AURKA (human)
  residual activity: 107%
IKBKB (human)
  residual activity: 103%
TAOK1 (human)
  residual activity: 72.1%
YES1 (human)
  residual activity: 86.3%
ULK2 (human)
  residual activity: 86.6%
MKNK2 (human)
  residual activity: 88.9%
CDK4 CCND1 (human)
  residual activity: 86.8%
FGFR1 (human)
  residual activity: 84.2%
TXK (human)
  residual activity: 101%
RPS6KA4 KD2 (human)
  residual activity: 95.3%
RPS6KA2 KD1 KD2 (human)
  residual activity: 80.8%
RPS6KA6 KD1 KD2 (human)
  residual activity: 84.8%
RET (human)
  residual activity: 97.5%
PRKCD (human)
  residual activity: 108%
PHKG1 (human)
  residual activity: 87%
BRSK2 (human)
  residual activity: 98.3%
TAOK2 (human)
  residual activity: 93.3%
CLK3 (human)
  residual activity: 91.3%
MLTK (human)
  residual activity: 94.4%
DCLK2 (human)
  residual activity: 95.9%
RPS6KB2 (human)
  residual activity: 106%
MAPKAPK2 (human)
  residual activity: 95.4%
MAPK14 (human)
  residual activity: 96.8%
RPS6KA1 KD1 KD2 (human)
  residual activity: 91.3%
EPHB3 (human)
  residual activity: 92.6%
STK17A (human)
  residual activity: 98.3%
BLK (human)
  residual activity: 98.8%
GRK4 (human)
  residual activity: 97.3%
ABL1 (human)
  residual activity: 95.6%
NEK4 (human)
  residual activity: 96.3%
DDR2 (human)
  residual activity: 96.3%
TYRO3 (human)
  residual activity: 97.8%
NTRK3 (human)
  residual activity: 90.5%
MAPK1 (human)
  residual activity: 91.7%
